Tests used:
[1] = target: T1, repressor protein (cymR) (Pseudomonas putida, UniProt O33453); assay: cumate induction of gfp reporter gene expression in M. extorquens (cymR2) transformed with pCUM-gfp; type: cell-based, Pseudomonas putida F1
T1 construct: expressed in transfected cells; host or cells: Methylobacterium extorquens ATCC 55366, strain cymR2 (two cymR copies integrated by mini-Tn7 under PmxaF), carrying pCUM-gfp
Protocol: Detection of gene expression Detection of GFP was carried out by fluorescence microscopy, and quantified by using a SPECTRAFluor Plus (TECAN Austria Gmbh, GrodIg, Austria) under excitation and emission wavelengths of 485 and 508 nm, respectively. Concentration of GFP was calculated based on a linear relationship between concentration and fluorescence units determined using solutions of purified GFP (Qbiogene). The biomass (X) was determined by cell dry weight measurement of the samples (Moisture Analyzer MA 30, Sartorius).
(§1) To test the optimal concentration of inducer, cumate, recombinant M. extorquens (cymR2) transformed with pCUM-gfp was grown to mid-log phase (0.8-1.0 units at OD600) at 30° C. followed by induction with cumate at different concentrations. Reporter gene expression was detectable 4 h post induction. Cumate induction was very sensitive since about 47% of reporter gene expression was obtained with 1 μg cumate/ml (FIG. 5). […] Optimum cumate concentration for effective induction of reporter gene expression was 15 μg/ml (ca. 0.1 mM).

[2] = tested on: M. extorquens (cymR2); type: cell-based, Methylobacterium extorquens; conditions: cumate 1-30 μg/ml
Protocol: M. extorquens (ATCC 55366) was used for the preparation of the heterologous gene expression host. E. coli strain Top10 was used for cloning and propagation of recombinant DNA and S17-1λpir (recA, thi, pro, hsdR^−M^+ RP4:2-Tc:Mu:Km Tn7, pir lysogen; Sm^R, Tp^R) was used for propagation of the helper plasmid (23). E. coli was cultured in Luria Bertani broth (LB) at 37° C. Strain of M. extorquens was grown in CHOI medium, as previously described (17) and 1% (v/v) methanol was used as sole carbon source. Both media were solidified by 1.8% agar (Difco) when appropriate. Antibiotics were used for E. coli and M. extorquens at the following concentrations (in ug/ml): ampicillin, 100; kanamycin (Km), 40; tetracyclin (Tc), 35.
as §1

[3] = tested on: cym and cmt operons; conditions: P. putida F1, regulated by cymR; cited from earlier work

T1 sequence (O33453 whole entry): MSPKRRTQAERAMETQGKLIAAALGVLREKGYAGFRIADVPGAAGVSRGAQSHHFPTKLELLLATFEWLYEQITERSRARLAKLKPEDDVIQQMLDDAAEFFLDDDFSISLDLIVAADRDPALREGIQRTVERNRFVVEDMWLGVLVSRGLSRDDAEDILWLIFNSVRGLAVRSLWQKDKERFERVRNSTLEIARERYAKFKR

Row | Structure (SMILES) | cumate concentration giving maximum gene expression ([1]; FIG. 5, gfp expression) | time post induction at which reporter gene expression was detectable ([1]; cumate at different concentrations) [h] | optimum cumate concentration for effective induction of reporter gene expression ([1]; induced at OD600 0.8-1.0, 30° C.) [µg/mL] | optimum cumate concentration for effective induction of reporter gene expression ([1]; molar equivalent of 15 μg/ml) | time post induction of maximum GFP expression ([1]; pCUM-GFP clones, FIG. 7a, cumate 15 μg/ml) [h] | effect on growth [2] | induction of cym/cmt operon expression [3]
1 | CC(C)c1ccc(C(=O)O)cc1 [cumate, p-isopropylbenzoate] | 15-30 μg cumate/ml | 4 | 15 | ca. 0.1 mM | 30 | No growth difference | Induction is afforded
2 | Cc1ccc(C(C)C)cc1 [p-cymene, p-isopropyltoluene] | – | – | – | – | – | – | not

Source: patent publication US8216821B2, “Regulation of heterologous recombinant protein expression in methylotrophic and methanotrophic bacteria” (National Research Council of Canada, priority 2005, dated 2012)
